Assay results: ChEMBL document CHEMBL4825757, “Optimization of 4,6-Disubstituted Pyrido[3,2-d]pyrimidines as Dual MNK/PIM Inhibitors to Inhibit Leukemia Cell Growth” (J Med Chem, 2021)
Activity calls are given as the source filed them. The rule behind the calls is not given here.

Key:
[1] = Cmax in Sprague Dawley rat at 10 mg/kg, ip measured after 24 hrs; type: ADME, organism-based; design: route intraperitoneal, time 24 hrs, dose 10 mg/kg; conditions: in vivo
K562 [2] = experiment: Downregulation of mcl-1 levels in human K562 cells at 1 to 2 uM incubated for 24 hrs by western blot analysis; type: functional, cell-based; conditions: dose 1-2 µM
[3] = biological target: T1, Serine/threonine-protein kinase pim-1 (Homo sapiens, UniProt P11309); experiment: Inhibition of wild-type human partial length PIM1 (A15 to K313 residues) expressed in bacterial expression system at 1 uM by Kinomescan method relative to control
[4] = Toxicity in NOD/SCID mouse xenografted with human MOLM-13 cells assessed as decrease in body weight at 5 to 10 mg/kg, ip daily for 2 weeks; type: organism-based; conditions: in vivo, 336 h, dose 5-10 mg/kg
[5] = biological target: T2, Serine/threonine-protein kinase PIM (Homo sapiens) (UniProt P11309+Q9P1W9+Q86V86); experiment: Inhibition of PIM in human MOLM-13 cells assessed as reduction of BAD phosphorylation at 1 to 2 uM incubated for 12 hrs by western blot analysis; type: cell-based; conditions: dose 1-2 µM
[6] = AUC (0 to infinity) in Sprague Dawley rat at 10 mg/kg, ip measured after 24 hrs; type: ADME, organism-based; design: route intraperitoneal, dose 10 mg/kg, time 24 hrs; conditions: in vivo
[7] = Bioavailability in Sprague Dawley rat at 10 mg/kg, ip measured after 24 hrs; type: ADME, organism-based; conditions: in vivo
MOLM-13 [8] = experiment: Induction of cell cycle arrest in human MOLM-13 cells assessed as sub-G1 phase at 1 uM incubated for 12 hr by propidium iodide based flow cytometry analysis (Rvb= 4.78%); type: functional
[9] = AUC (0 to t) in Sprague Dawley rat at 2 mg/kg, iv measured after 24 hrs; type: ADME, organism-based; design: route intravenous, time 24 hrs, dose 2 mg/kg; conditions: in vivo
[10] = Cmax in Sprague Dawley rat at 2 mg/kg, iv measured after 24 hrs; type: ADME, organism-based; design: route intravenous, time 24 hrs, dose 2 mg/kg; conditions: in vivo
K562 [11] = experiment: Antiproliferative activity against human K562 cells assessed as reduction of cell viability incubated for 72 hrs by trypan blue staining based cell counting analysis; type: functional
[12] = biological target: T3, MAP kinase-interacting serine/threonine-protein kinase 1 (Homo sapiens, UniProt Q9BUB5); experiment: Inhibition of MKN1 (unknown origin) in presence of ATP by HTRF assay
[13] = biological target: T3, MAP kinase-interacting serine/threonine-protein kinase 1; experiment: Inhibition of wild type human full length MKN1 (M1 to L424) expressed in mammalian expression system by HTRF method
MOLM-13 [14] = experiment: Induction of cell cycle arrest in human MOLM-13 cells assessed as sub-G1 phase at 2 uM incubated for 12 hr by propidium iodide based flow cytometry analysis (Rvb= 4.78%); type: functional
[15] = Oral bioavailability in Sprague Dawley rat at 10 mg/kg measured after 24 hrs; type: ADME, organism-based; conditions: in vivo
[16] = biological target: T4, Serine/threonine-protein kinase pim-3 (Homo sapiens, UniProt Q86V86); experiment: Inhibition of recombinant human Pim3 (2 to end residues) using RSRHSSYPAGT as substrate incubated for 40 mins in presence of [gamma33P]ATP by scintillation counting based radiometry assay
MOLM-13 [17] = experiment: Induction of apoptosis in human MOLM-13 cells assessed as live cells at 2 uM incubated for 12 hrs by annexin-V and propidium iodide staining based flow cytometry analysis (reference value: 91.49%); type: functional
MOLM-13 [18] = experiment: Induction of cell cycle arrest in human MOLM-13 cells assessed as G1 phase at 1 uM incubated for 12 hr by propidium iodide based flow cytometry analysis (Rvb= 51.29%); type: functional
[19] = biological target: T5, MAP kinase-interacting serine/threonine-protein kinase 2 (Homo sapiens, UniProt Q9HBH9); experiment: Inhibition of wild type human partial length MKN2 (G63 to S388 residues) expressed in mammalian expression system by HTRF method
[20] = biological target: T6, Receptor tyrosine-protein kinase erbB-2 (Homo sapiens, UniProt P04626); experiment: Inhibition of ERBB2 (unknown origin) by mobility shift assay
K562 [21] = experiment: Downregulation of c-myc levels in human K562 cells at 1 to 2 uM incubated for 24 hrs by western blot analysis; type: functional, cell-based; conditions: dose 1-2 µM
[22] = Tmax in Sprague Dawley rat at 2 mg/kg, iv measured after 24 hrs; type: ADME, organism-based; conditions: in vivo
MOLM-13 [23] = experiment: Downregulation of cyclin-D1 levels in human MOLM-13 cells at 1 to 2 uM incubated for 12 hrs by western blot analysis; type: functional, cell-based; conditions: dose 1-2 µM
[24] = Intrinsic clearance in human liver microsomes preincubated for 10 mins followed by NADPH addition and further incubated upto 60 mins by LC-MS/MS analysis; type: ADME, Microsome; conditions: time <=70 min, read-out: CLH
MOLM-13 [25] = experiment: Induction of apoptosis in human MOLM-13 cells assessed as late apoptotic cells at 1 uM incubated for 12 hrs by annexin-V and propidium iodide staining based flow cytometry analysis (reference value: 3.03%); type: functional
[26] = Half life in Sprague Dawley rat at 10 mg/kg, ip measured after 24 hrs; type: ADME, organism-based; conditions: in vivo
[27] = biological target: T4, Serine/threonine-protein kinase pim-3; experiment: Inhibition of wild-type human partial length PIM3 (G16 to A317 residues) expressed in bacterial expression system at 1 uM by Kinomescan method relative to control
[28] = biological target: T5, MAP kinase-interacting serine/threonine-protein kinase 2; experiment: Inhibition of wild type human partial length MKN2 (G63 to S388 residues) expressed in mammalian expression system at 1 uM by Kinomescan method relative to control
MOLM-13 [29] = experiment: Induction of cell cycle arrest in human MOLM-13 cells assessed as G1 phase at 2 uM incubated for 12 hr by propidium iodide based flow cytometry analysis (Rvb= 51.29%); type: functional
[30] = Half life in Sprague Dawley rat at 2 mg/kg, iv measured after 24 hrs; type: ADME, organism-based; conditions: in vivo
[31] = Tmax in Sprague Dawley rat at 10 mg/kg, po measured after 24 hrs; type: ADME, organism-based; conditions: in vivo
[32] = Toxicity in NOD/SCID mouse xenografted with human MOLM-13 cells assessed as abnormal changes in lung at 5 to 10 mg/kg, ip daily for 2 weeks by hematoxylin-eosin staining based histological analysis; type: organism-based; conditions: in vivo, 336 h, dose 5-10 mg/kg
[33] = biological target: T2, Serine/threonine-protein kinase PIM (Homo sapiens); experiment: Inhibition of PIM in human K562 cells assessed as reduction in phosphorylated 4EBP1 at 1 to 2 uM incubated for 24 hrs by western blot analysis; type: cell-based; conditions: dose 1-2 µM
[34] = biological target: T6, Receptor tyrosine-protein kinase erbB-2; experiment: Inhibition of wild-type human partial length ERBB2 (K646 to V1225 residues) expressed in mammalian expression system at 1 uM by Kinomescan method relative to control
MOLM-13 [35] = experiment: Antiproliferative activity against human MOLM13 cells assessed as reduction of cell viability incubated for 72 hrs by trypan blue staining based cell counting analysis; type: functional
[36] = Toxicity in NOD/SCID mouse xenografted with human MOLM-13 cells assessed as abnormal changes in spleen at 5 to 10 mg/kg, ip daily for 2 weeks by hematoxylin-eosin staining based histological analysis; type: organism-based; conditions: in vivo, 336 h, dose 5-10 mg/kg
[37] = Toxicity in NOD/SCID mouse xenografted with human MOLM-13 cells assessed as abnormal changes in heart at 5 to 10 mg/kg, ip daily for 2 weeks by hematoxylin-eosin staining based histological analysis; type: organism-based; conditions: in vivo, 336 h, dose 5-10 mg/kg
[38] = biological target: T1, Serine/threonine-protein kinase pim-1; experiment: Inhibition of full length recombinant human PIM1 using KKRNRTLTV as substrate incubated for 40 mins in presence of [gamma33P]ATP by scintillation counting based radiometry assay
[39] = biological target: Epidermal growth factor receptor (Homo sapiens, UniProt P00533); experiment: Inhibition of recombinant human EGFR (696 to end residues) using poly(Glu, Tyr) 4:1 as substrate after 40 mins in presence of [gamma-33ATP] by radiometric scintillation counting analysis

Q: Which results are given for CC(C)Oc1cc(F)ccc1Nc1ncnc2ccc(-c3ccc(C(=O)N4CCNCC4)cc3)nc12?
A: Cmax [1]: 405 ng/mL; Activity (K562 [2]): Active; inhibition [3]: 96%; Activity [4]: Non-Toxic; inhibition [5]: Active; AUC(0-inf) [6]: 1680 ng·h/mL; bioavailability [7]: 20.6%; Activity (MOLM-13 [8]): 11.81%; AUC(0-t) at 24 h [9]: 1610 ng·h/mL; Cmax [10]: 652 ng/mL; GI50 (K562 [11]): 2.19 µM; IC50 [12]: 0.001 µM; IC50 [13]: 0.001 µM; Activity (MOLM-13 [14]): 32.41%; bioavailability [15]: 35.5%; IC50 [16]: 0.774 µM; Activity (MOLM-13 [17]): 61.5%; Activity (MOLM-13 [18]): 61.13%; IC50 [19]: 0.007 µM; IC50 [20]: 7.49 µM; Activity (K562 [21]): Active; Tmax [22]: 4.98 min; Activity (MOLM-13 [23]): Active; CLint scaled [24]: 8.53 mL/min/kg; Activity (MOLM-13 [25]): 2.97%; half-life [26]: 4.4 h; inhibition [27]: 90%; inhibition [28]: 100%; Activity (MOLM-13 [29]): 44.38%; half-life [30]: 6.71 h; Tmax [31]: 8 h; Activity [32]: Non-Toxic; inhibition [33]: Dose-Dependent Effect; inhibition [34]: 60%; GI50 (MOLM-13 [35]): 1.23 µM; Activity [36]: Non-Toxic; Activity [37]: Non-Toxic; IC50 [38]: 0.043 µM; IC50 [39]: 1.97 µM
